Common to all, as to assay type: binding
Assay [1] has as its target T1, human MDM2 protein (amino acids 2-188) (Homo sapiens (Human), UniProt Q00987). Description: TR-FRET assay, p53-MDM2 Assay 1. Particulars: 1.25 nM MDM2-biotinylated, 10 nM Cy5-p53 peptide. The procedure: (§1) The inhibition of p53-MDM2 and p53-MDM4 interactions is measured by time resolved fluorescence energy transfer (TR-FRET). Fluorescence energy transfer (or Foerster resonance energy transfer) describes an energy transfer between donor and acceptor fluorescent molecules. For this assay, human MDM2 protein (amino acids 2-188) and human MDM4 protein (amino acids 2-185), tagged with a C-terminal biotin moiety, are used in combination with a Europium labeled streptavidin (Perkin Elmer, Inc., Waltham, Mass., USA) serving as the donor fluorophore. The p53 derived, Cy5 labeled peptide Cy5-TFSDLWKLL (p53 aa18-26) is the energy acceptor. Upon excitation of the donor molecule at 340 nm, binding interaction between MDM2 or MDM4 and the p53 peptide induces energy transfer and enhanced response at the acceptor emission wavelength at 665 nm. Disruption of the formation of the p53-MDM2 or p53-MDM4 complex due to an inhibitor molecule binding to the p53 binding site of MDM2 or MDM4 results in increased donor emission at 620 nm. The ratiometric FRET assay readout is calculated from the raw data of the two distinct fluorescence signals measured in time resolved mode (fluorescence 665 nm/fluorescence 620 nm×1000).
(§2) After addition of 1.25 nM MDM2-biotinylated or 2.5 nM MDM4-biotinylated (internal preparations), and 0.625 nM Europium labeled streptavidin (Perkin Elmer), the solution is pre-incubated for 15 minutes at room temperature, then 10 nM Cy5-p53 peptide (internal preparation) is added before an incubation at room temperature for 15 minutes prior to reading the plate. For measurement of samples, a Victor II microplate reader (Perkin Elmer) is used with the following settings: Excitation 340 nm, Emission Donor 620 nm and Emission Acceptor 665 nm. IC50 values are calculated by curve fitting using XLfit. If not specified, reagents are purchased from Sigma-Aldrich Chemie GmBH, Buchs, Switzerland.
(§3) This assay was used to evaluate compounds displaying inhibition of p53-MDM2 interaction and p53-MDM4 interaction at IC50s of 0.005 to 50 μM (p53-MDM2 Assay 1 and p53-MDM4 Assay 1, respectively). For selected compounds displaying IC50s between […] on MDM2, a slightly modified assay is used with the following adaptations: 0.1 nM MDM2, 0.1 nM Europium labeled streptavidin and Tecan genios Pro is used as a microplate reader for the fluorescence measurements (p53-MDM2 Assay 2).

Assay [2] addresses human MDM4 protein (amino acids 2-185) (Homo sapiens (Human), UniProt O15151). Description: TR-FRET assay, p53-MDM4 Assay 1. The note with it: 2.5 nM MDM4-biotinylated, 10 nM Cy5-p53 peptide. The procedure: as §1, §2, §3
Assay [3] concerns the target T1, human MDM2 protein (amino acids 2-188). Description: TR-FRET assay, p53-MDM2 Assay 2 (modified). Particulars: TR-FRET; 0.1 nM MDM2, 0.1 nM Europium labeled streptavidin, Tecan genios Pro reader; read-out: IC50 p53-MDM2 Assay 2. Summed up:
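IC50 values were curve-fitted from the time-resolved 665/620 nm emission ratio after 340 nm excitation. The assay combined 0.625 nM europium-streptavidin donor with 1.25 nM C-terminally biotinylated MDM2 2–188 (15 min, RT), followed by 15 min with 10 nM Cy5-labeled p53 18–26 acceptor peptide.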

The structures appear in SMILES notation. pIC50: −log10 of the molar value.

Chain of human MDM4 protein (amino acids 2-185) (O15151 2-185): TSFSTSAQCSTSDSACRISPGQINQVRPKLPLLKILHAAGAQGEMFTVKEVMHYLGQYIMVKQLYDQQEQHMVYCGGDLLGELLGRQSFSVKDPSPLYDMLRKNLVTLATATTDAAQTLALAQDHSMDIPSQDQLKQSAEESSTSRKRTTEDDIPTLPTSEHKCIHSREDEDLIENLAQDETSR
T1 sequence (Q00987 2-188): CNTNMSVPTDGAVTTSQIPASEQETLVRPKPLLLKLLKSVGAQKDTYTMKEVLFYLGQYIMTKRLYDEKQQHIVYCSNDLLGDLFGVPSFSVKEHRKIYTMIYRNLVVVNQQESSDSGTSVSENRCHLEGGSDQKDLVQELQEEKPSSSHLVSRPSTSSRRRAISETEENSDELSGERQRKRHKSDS

`COc1ncc(-c2cc3c(n2C(C)C)C(c2ccc(Cl)cc2C)N([C@H]2CC[C@H](O)CC2)C3=O)c(OC)n1` (stereo partly drawn) [Example 103, 6-(4-Chloro-2-methyl-phenyl)-2-(2,4-dimethoxy-pyrimidin-5-yl)-5-(trans-4-hydroxy-cyclohexyl)-1-isopropyl-5,6-dihydro-1H-pyrrolo[3,4-b]pyrrol-4-one]: the figures for the negative-log IC50 (pIC50) in assay [1], in assay [2] and in assay [3] were 7.68, 5.33 and 7.52, respectively.

`COc1ncc(-c2cc3c(n2C(C)C)C(c2ccc(Cl)cc2C)N(C2CCOCC2)C3=O)c(OC)n1` (stereo not drawn) [Example 105, 6-(4-Chloro-2-methyl-phenyl)-2-(2,4-dimethoxy-pyrimidin-5-yl)-1-isopropyl-5-(tetrahydro-pyran-4-yl)-5,6-dihydro-1H-pyrrolo[3,4-b]pyrrol-4-one]: the negative logarithm of the IC50 (pIC50) in assay [1] is 7.99; in assay [2], 5.20; in assay [3], 7.84.

`COc1nc(N)ncc1-c1cc2c(n1C(C)C)C(c1ccc(Cl)cc1)N(C1CCC(=O)N(C)C1)C2=O` (stereo not drawn) [Example 108, 2-(2-Amino-4-methoxy-pyrimidin-5-yl)-6-(4-chloro-phenyl)-1-isopropyl-5-(1-methyl-6-oxo-piperidin-3-yl)-5,6-dihydro-1H-pyrrolo[3,4-b]pyrrol-4-one]: the values for the pIC50 in assay [1], in assay [2] and in assay [3] were 8.48, 5.04 and 8.43, respectively.

As for `COc1nc(N(C)C)ncc1-c1cc2c(n1C(C)C)[C@H](c1ccc(C#N)cc1)N(c1cc(Cl)c[nH]c1=O)C2=O` [Example 167, 4-[(S)-5-(5-Chloro-2-oxo-1,2-dihydro-pyridin-3-yl)-2-(2-dimethylamino-4-methoxy-pyrimidin-5-yl)-1-isopropyl-4-oxo-1,4,5,6-tetrahydro-pyrrolo[3,4-b]pyrrol-6-yl]-benzonitrile], the negative-log IC50 (pIC50) in assay [1] was 9.10; in assay [2], 6.14; in assay [3] it was 9.79.

As for `COc1ccccc1-c1cc2c(n1C(C)C)C(c1ccc(Cl)cc1)N(c1cc(Cl)ccc1C)C2=O` (stereo not drawn) [Example 9, 5-(5-Chloro-2-methyl-phenyl)-6-(4-chloro-phenyl)-1-isopropyl-2-(2-methoxy-phenyl)-5,6-dihydro-1H-pyrrolo[3,4-b]pyrrol-4-one], the negative-log IC50 (pIC50) in assay [1] was 9.22; in assay [2], 5.40; in assay [3] it was 9.53.

In the case of `CNC(=O)N1CCC(N2C(=O)c3cc(-c4cnc(OC)nc4OC)n(C(C)C)c3C2c2ccc(Cl)cc2)CC1` (stereo not drawn) [Example 107, 4-[6-(4-Chloro-phenyl)-2-(2,4-dimethoxy-pyrimidin-5-yl)-1-isopropyl-4-oxo-4,6-dihydro-1H-pyrrolo[3,4-b]pyrrol-5-yl]-piperidine-1-carboxylic acid methylamide], the figures for the pIC50 in assay [1], in assay [2] and in assay [3] were 8.52, 5.44 and 8.57, respectively.

As for `CNC(=O)c1ccc(OC)c(-c2cc3c(n2C(C)C)[C@H](c2ccc(Cl)cc2C)N(c2cc(Cl)ccc2C)C3=O)c1` [Example 32, 3-[(S)-5-(5-Chloro-2-methyl-phenyl)-6-(4-chloro-2-methyl-phenyl)-1-isopropyl-4-oxo-1,4,5,6-tetrahydro-pyrrolo[3,4-b]pyrrol-2-yl]-4-methoxy-N-methyl-benzamide], the negative logarithm of the IC50 (pIC50) in assay [1] is 9.30; in assay [2], 6.58; in assay [3], 10.03.

Take `CNC(=O)c1ccc(OC)c(-c2cc3c(n2C(C)C)C(c2ccc(Cl)cc2C)N([C@H]2CC[C@H](O)CC2)C3=O)c1` (stereo partly drawn) [Example 102, 3-[6-(4-Chloro-2-methyl-phenyl)-5-(trans-4-hydroxy-cyclohexyl)-1-isopropyl-4-oxo-1,4,5,6-tetrahydro-pyrrolo[3,4-b]pyrrol-2-yl]-4-methoxy-N-methyl-benzamide]: the pIC50 was 7.90 in assay [1], 5.62 in assay [2] and 7.87 in assay [3].

As to `CNC(=O)c1ccc(OC)c(-c2cc3c(n2C(C)C)C(c2ccc(Cl)cc2C)N(c2cccc(Cl)c2F)C3=O)c1` (stereo not drawn) [Example 2, 3-[5-(3-Chloro-2-fluoro-phenyl)-6-(4-chloro-2-methyl-phenyl)-1-isopropyl-4-oxo-1,4,5,6-tetrahydro-pyrrolo[3,4-b]pyrrol-2-yl]-4-methoxy-N-methyl-benzamide], the pIC50 in assay [1] is 8.54; in assay [2], 5.54; in assay [3], 9.12.

Take `COc1nc(N)ncc1-c1cc2c(n1C(C)C)C(c1ccc(Cl)cc1)N(C1CCOCC1)C2=O` (stereo not drawn) [Example 78, 2-(2-Amino-4-methoxy-pyrimidin-5-yl)-6-(4-chloro-phenyl)-1-isopropyl-5-(tetrahydro-pyran-4-yl)-5,6-dihydro-1H-pyrrolo[3,4-b]pyrrol-4-one]: the pIC50 in assay [1] is 8.07; in assay [2], 4.85; in assay [3], 8.29.

On to `COc1ccccc1-c1cc2c(n1C(C)C)C(c1ccc(Cl)cc1C)N([C@H]1CC[C@H](O)CC1)C2=O` (stereo partly drawn) [Example 101, 6-(4-Chloro-2-methyl-phenyl)-5-(trans-4-hydroxy-cyclohexyl)-1-isopropyl-2-(2-methoxy-phenyl)-5,6-dihydro-1H-pyrrolo[3,4-b]pyrrol-4-one], for which the pIC50 in assay [1] is 7.57; in assay [2] it was 5.52; in assay [3] it was 7.50.

As for `COc1ccc(C(=O)NOCCO)cc1-c1cc2c(n1C(C)C)C(c1ccc(Cl)cc1)N(c1cc(Cl)ccc1C)C2=O` (stereo not drawn) [Example 37, 3-[5-(5-Chloro-2-methyl-phenyl)-6-(4-chloro-phenyl)-1-isopropyl-4-oxo-1,4,5,6-tetrahydro-pyrrolo[3,4-b]pyrrol-2-yl]-N-(2-hydroxy-ethoxy)-4-methoxy-benzamide], the pIC50 was 8.96 in assay [1], 6.49 in assay [2] and 9.90 in assay [3].

Regarding `CNC(=O)c1ccc(OC)c(-c2cc3c(n2C(C)C)C(c2ccc(Cl)cc2)N(c2cc(Cl)ccc2C)C3=O)c1` (stereo not drawn) [Example 10, 3-[5-(5-Chloro-2-methyl-phenyl)-6-(4-chloro-phenyl)-1-isopropyl-4-oxo-1,4,5,6-tetrahydro-pyrrolo[3,4-b]pyrrol-2-yl]-4-methoxy-N-methyl-benzamide], the pIC50 in assay [1] is 9.05; in assay [2] it was 6.32; in assay [3], 9.94.

Consider `COc1ccc(C(=O)O)cc1-c1cc2c(n1C(C)C)C(c1ccc(Cl)cc1)N([C@H]1CC[C@H](O)CC1)C2=O` (stereo partly drawn) [Example 65, 3-[6-(4-Chloro-phenyl)-5-(trans-4-hydroxy-cyclohexyl)-1-isopropyl-4-oxo-1,4,5,6-tetrahydro-pyrrolo[3,4-b]pyrrol-2-yl]-4-methoxy-benzoic acid], for which the values for the negative logarithm of the IC50 (pIC50) in assay [1], in assay [2] and in assay [3] were 7.91, 5.06 and 8.31, respectively.

Source of the values: patent US9365576B2, “Pyrrolopyrrolidinone compounds” (Novartis AG, priority 2012, dated 2016).
